{"source": "patent US5527555A", "about": "“Brazzein sweetener” (Wisconsin Alumni Research Foundation, priority 1994, dated 1996)", "key": {"[1]": {"assay": "sweetness by tasting, compared with sucrose solution", "type": "in vivo"}, "[2]": {"assay": "Thermostability assay (incubation at 98° C., sweetness then tasted)", "type": "physicochemical", "procedure": "A thermostability assay was done (2 hours at 98° C.) at a concentration of 0.5 mg/ml Brazzein at the following different pH levels: 2 (Glycine-HCL buffer); 4 (Acetate buffer); 6 (Phosphate buffer); and 8 (Tris-HCL buffer). All of the buffers were in concentration of 50 mM. After the incubations, the samples were cooled down to room temperature and the sweetness of the samples was tasted with a comparison to the original protein solution."}}}
{"substance": "Brazzein: sweet protein isolated from Pentadiplandra brazzeana Baillon, about 6,473 Daltons, amino acid sequence SEQ ID NO:4 (EDKCKKVYENYPVSKCQLANQCNYDCKLDKHARSGECFYDEKRNLQCICDYCEY)", "values": [{"measurement": "sweetness relative to sucrose", "setting": "[1]; 2% solution compared with a 2% sucrose solution", "value": "about 2,000 times"}, {"measurement": "temporal sweetness response", "setting": "[1]; taste, duration of sweetness", "value": "relatively long lasting sweetness response"}, {"measurement": "thermostability", "setting": "[2]; 2 hours at 98° C., 0.5 mg/ml, pH 2, 4, 6 and 8 (50 mM buffers), sweetness tasted against original protein solution", "value": "excellent thermostability"}, {"measurement": "sweetness after heat incubation", "setting": "[2]; two hours of incubation at 98° C.", "value": "still tasted very sweet"}]}
